# Literature values, collected in PMC3433420 (PLoS ONE, 2012).
# Like-named read-outs stand apart in the source and are kept apart here.
# Molecular target: SH2 and PTB domains
# Conditions: ref Jones et al. 2006 / Kaushansky et al. Chem and Biol 2008, cited from earlier work
# Excerpt: Supplement pone.0044471.s022.xlsx, sheet "Most recent PM interactions" | column: Kd || Supplement pone.0044471.s022.xlsx, sheet "All original PM interactions" | column: Kd
substance,measurement,setting,value
"PGGDpYAAMGACPd [ErbB3 pY1276, N-terminally rhodamine-labeled 13-mer phosphopeptide]",Kd,"Protein ABL1, original PM interactions",2000 nM
same,Kd,"Protein BCAR3, original PM interactions",2000 nM
same,Kd,"Protein CRKL, original PM interactions",440 nM
same,Kd,"Protein PIK3R3-C, original PM interactions",500 nM
same,Kd,"Protein PIK3R3-N, original PM interactions",500 nM
same,Kd,"Protein PTK6, original PM interactions",440 nM
same,Kd,"Protein SH2B2, original PM interactions",2000 nM
same,Kd,"Protein SHC1, original PM interactions",600 nM
same,Kd,"Protein SLA2, original PM interactions",2000 nM
same,Kd,"Protein SLA, original PM interactions",2000 nM
same,Kd,"Protein SYK-NC, original PM interactions",600 nM
same,Kd,"Protein TENC1, original PM interactions",2000 nM
same,Kd,"Protein VAV1, original PM interactions",2000 nM
same,Kd,protein ABL2,150 nM
same,Kd,protein CRK,260 nM
same,Kd,protein CRKL,440 nM
same,Kd,protein HCK,580 nM
same,Kd,protein NCK1,210 nM
same,Kd,protein NCK2,550 nM
same,Kd,protein PIK3R1-N,530 nM
same,Kd,protein PIK3R1-NC,55 nM
same,Kd,protein PIK3R2-C,930 nM
same,Kd,protein PIK3R2-N,120 nM
same,Kd,protein PIK3R2-NC,80 nM
same,Kd,protein PIK3R3-C,500 nM
same,Kd,protein PIK3R3-N,500 nM
same,Kd,protein PIK3R3-NC,14 nM
same,Kd,protein PLCG1-C,690 nM
same,Kd,protein PLCG1-NC,720 nM
same,Kd,protein PTK6,440 nM
same,Kd,protein RASA1-N,910 nM
same,Kd,protein SHC1,600 nM
same,Kd,protein SHC3,640 nM
same,Kd,protein SYK-NC,600 nM
same,Kd,protein TXK,1670 nM
same,Kd,protein VAV2,300 nM
same,Kd,protein VAV3,1540 nM
same,Kd,protein ZAP70-C,1440 nM
"PKQEpYLNPVEENd [ErbB4 pY1162, N-terminally rhodamine-labeled 13-mer phosphopeptide]",Kd,"protein ABL2, all original PM interactions",320 nM
same,Kd,protein ABL2,280 nM
same,Kd,"protein CRK, all original PM interactions",2000 nM
same,Kd,"protein CRKL, all original PM interactions",2000 nM
same,Kd,"protein NCK2, all original PM interactions",2000 nM
same,Kd,"protein PIK3R2-N, all original PM interactions",2000 nM
same,Kd,"protein PIK3R3-NC, all original PM interactions",2000 nM
same,Kd,"protein PLCG1-C, all original PM interactions",2000 nM
same,Kd,"protein PLCG1-NC, all original PM interactions",2000 nM
same,Kd,"protein PTPN11-N, all original PM interactions",2000 nM
same,Kd,"protein RASA1-N, all original PM interactions",2000 nM
same,Kd,protein RASA1-N,980 nM
same,Kd,"protein SLA, all original PM interactions",2000 nM
same,Kd,"protein SYK-NC, all original PM interactions",2000 nM
same,Kd,"protein VAV1, all original PM interactions",2000 nM
same,Kd,"protein VAV2, all original PM interactions",2000 nM
same,Kd,protein VAV2,100 nM
same,Kd,"protein VAV3, all original PM interactions",2000 nM
PLTCSPQPEpYVNQPDVR [ErbB2 1139],Kd,"Protein ABL1, most recent PM interactions",160 nM
same,Kd,"Protein ABL2, most recent PM interactions",70 nM
same,Kd,"Protein BCAR3, most recent PM interactions",1000 nM
same,Kd,"Protein BMX, most recent PM interactions",520 nM
same,Kd,"Protein FGR, most recent PM interactions",450 nM
same,Kd,"Protein GRAP2, most recent PM interactions",960 nM
same,Kd,"Protein GRB2, most recent PM interactions",76 nM
same,Kd,"Protein ITK, most recent PM interactions",1510 nM
same,Kd,"Protein NCK2, most recent PM interactions",780 nM
same,Kd,"Protein PIK3R1-N, most recent PM interactions",510 nM
same,Kd,"Protein PIK3R1-NC, most recent PM interactions",740 nM
same,Kd,"Protein PIK3R2-N, most recent PM interactions",280 nM
same,Kd,"Protein PIK3R2-NC, most recent PM interactions",780 nM
same,Kd,"Protein PIK3R3-C, most recent PM interactions",1220 nM
same,Kd,"Protein PIK3R3-N, most recent PM interactions",400 nM
same,Kd,"Protein PIK3R3-NC, most recent PM interactions",300 nM
same,Kd,"Protein PLCG1-C, most recent PM interactions",1930 nM
same,Kd,"Protein PLCG2-NC, most recent PM interactions",1280 nM
same,Kd,"Protein PTPN11-NC, most recent PM interactions",880 nM
same,Kd,"Protein RASA1-N, most recent PM interactions",680 nM
same,Kd,"Protein SH2D2A, most recent PM interactions",980 nM
same,Kd,"Protein SH3BP2, most recent PM interactions",410 nM
same,Kd,"Protein SYK-NC, most recent PM interactions",970 nM
same,Kd,"Protein TENC1, most recent PM interactions",570 nM
same,Kd,"Protein TNS3, most recent PM interactions",770 nM
same,Kd,"Protein VAV1, most recent PM interactions",210 nM
same,Kd,"Protein VAV2, most recent PM interactions",230 nM
